# Data reported in patent publication US7470680B2, “Constrained compounds as CGRP-receptor antagonists” (Bristol-Myers Squibb Company, priority 2006, dated 2008).
# Key:
# [1] = target: T1, CGRP receptor (Homo sapiens, UniProt O60894+Q16602); assay: CGRP radioligand binding assay ([125I]-CGRP displacement, SK-N-MC homogenate); parameters: endogenous in cells; host or cells: SK-N-MC cells (homogenate/membrane pellet); details: displacement of [125I]-CGRP, SK-N-MC membranes
# Method: CGRP Binding Assay. Tissue Culture. SK-N-MC cells were grown at 37° C. in 5% CO2 as a monolayer in medium consisting of MEM with Earle's salts and L-glutamine (Gibco) supplemented with 10% fetal bovine serum (Gibco). Cell Pellets. The cells were rinsed twice with phosphate-buffered saline (155 mM NaCl, 3.3 mM Na2HPO4, 1.1 mM KH2PO4, pH 7.4), and incubated for 5-10 min. at 4° C. in hypotonic lysis buffer consisting of 10 mM Tris (pH 7.4) and 5 mM EDTA. The cells were transferred from plates to polypropylene tubes (16×100 mm) and homogenized using a polytron. Homogenates were centrifuged at 32,000×g for 30 min. The pellets were resuspended in cold hypotonic lysis buffer with 0.1% mammalian protease inhibitor cocktail (Sigma) and assayed for protein concentration. The SK-N-MC homogenate was then aliquoted and stored at −80° C. until needed.
# Radioligand Binding Assay. The compounds of invention were solubilized and carried through serial dilutions using 100% DMSO. Aliquots from the compound serial dilutions were further diluted 25 fold into assay buffer (50 mM Tris-Cl pH 7.5, 5 mM MgCl2, 0.005% Triton X-100) and transferred (volume 50 μl) into 96 well assay plates. [^125I]-CGRP (Amersham Biosciences) was diluted to 60 pM in assay buffer and a volume of […] was added to each well. SK-N-MC pellets were thawed, diluted in assay buffer with fresh 0.1% mammalian protease inhibitor cocktail (Sigma), and homogenized again. SK-N-MC homogenate (5 μg/well) was added in a volume of 100 μl. The assay plates were then incubated at room temperature for 2 h. Assays were stopped by addition of excess cold wash buffer (20 mM Tris-Cl pH 7.5, 0.1% BSA) immediately followed by filtration over glass fiber filters (Whatman GF/B) previously soaked in 0.5% PEI. Non-specific binding was defined with 1 μM beta-CGRP. Protein bound radioactivity was determined using a gamma or scintillation counter. The IC50 was defined as the concentration of a compound of invention required to displace 50% of radioligand binding.
# [2] = target: T1, CGRP receptor; assay: Cyclic AMP functional antagonism assay in SK-N-MC cells; assay type: cell-based; parameters: SK-N-MC cells that endogenously express the human CGRP receptor; endogenous in cells; host or cells: SK-N-MC cells; details: Table 2; inhibition of 0.3 nM CGRP-induced cAMP in SK-N-MC cells; read-out: cAMP Function IC50
# Method: Cyclic AMP Functional Antagonism Assay. Antagonism of the compounds of invention was determined by measuring the formation of cyclic AMP (adenosine 3′5′-cyclic monophosphate) in SK-N-MC cells that endogenously express the human CGRP receptor. CGRP receptor complex is coupled with Gs protein and CGRP binding to this complex leads to the cyclic AMP production via Gs-dependent activation of an adenylate cyclase (Juaneda C. et al., TiPS, 2000; 21:432-438). Consequently, CGRP receptor antagonists inhibit CGRP—induced cyclic AMP formation in SK-N-MC cells (Doods H, et al., Br J Pharmacol, 2000; 129(3):420-423). For cyclic AMP measurements SK—N-MC cells were incubated with 0.3 nM CGRP alone or in the presence of various concentrations of the compounds of invention for 30 min at room temperature. Compounds of invention were pre-incubated with SK—N-MC cells for 15 min before the addition of CGRP to allow receptor occupancy (Edvinsson et al., Eur J Pharmacol, 2001, 415:39-44). Cyclic AMP was extracted using the lysis reagent and its concentration was determined by radioimmunoassay using RPA559 cAMP SPA Direct Screening Assay Kit (Amersham Pharmacia Biotech). IC50 values were calculated using Excel fit.
# T1 sequence (Q16602 23-461): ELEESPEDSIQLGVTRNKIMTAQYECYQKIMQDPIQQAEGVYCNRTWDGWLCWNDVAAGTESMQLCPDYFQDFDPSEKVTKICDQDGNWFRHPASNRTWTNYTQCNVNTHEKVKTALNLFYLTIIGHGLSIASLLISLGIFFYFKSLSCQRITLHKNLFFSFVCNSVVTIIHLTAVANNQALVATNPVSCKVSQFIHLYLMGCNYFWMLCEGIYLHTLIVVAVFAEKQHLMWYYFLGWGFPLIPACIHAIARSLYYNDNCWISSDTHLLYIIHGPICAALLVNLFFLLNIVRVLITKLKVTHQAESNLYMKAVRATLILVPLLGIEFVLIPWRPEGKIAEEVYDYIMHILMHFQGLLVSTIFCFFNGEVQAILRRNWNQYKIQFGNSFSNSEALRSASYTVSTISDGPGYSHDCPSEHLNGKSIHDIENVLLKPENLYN
# T1 sequence (O60894 27-148): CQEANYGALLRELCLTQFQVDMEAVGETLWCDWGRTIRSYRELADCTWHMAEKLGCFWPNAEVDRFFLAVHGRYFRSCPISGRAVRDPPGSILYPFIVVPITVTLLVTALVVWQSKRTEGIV
Compound,IC50 ([1]; Table 2) [nM],IC50 [2] [nM],IC50 ([1]; Table 1) [nM]
O=C(N[C@@H]1Cc2cc(Cl)c3[nH]ncc3c2CN(Cc2ccccc2)C1=O)N1CCC(N2Cc3ccccc3NC2=O)CC1,0.01 to 10,0.01 to 10,
O=C(NC1Cc2ccc3[nH]ncc3c2CN(CCc2ccncc2)C1=O)N1CCC(N2Cc3ccccc3NC2=O)CC1 (stereo not drawn),0.01 to 10,0.01 to 10,
CC(C)(C)CN1Cc2c(cc(Cl)c3[nH]ncc23)C[C@@H](CC(=O)N2CCC(n3cc(-c4ccccc4)[nH]c3=O)CC2)C1=O,0.01 to 10,0.01 to 10,
O=C(C[C@@H]1Cc2cc(Cl)c3[nH]ncc3c2CN(Cc2ncc[nH]2)C1=O)N1CCC(N2Cc3ccccc3NC2=O)CC1,0.01 to 10,0.01 to 10,
CC(C)(C)CN1Cc2c(cc(Cl)c3[nH]ncc23)C[C@@H](CC(=O)N2CCC(N3Cc4ccccc4NC3=O)CC2)C1=O,0.01 to 10,0.01 to 10,
CC(C)(C)CCN1Cc2c(ccc3[nH]ncc23)C[C@@H](NC(=O)N2CCC(N3Cc4ccccc4NC3=O)CC2)C1=O,0.01 to 10,0.01 to 10,
O=C(C[C@@H]1Cc2cc(Cl)c3[nH]ncc3c2CN(Cc2ccncc2)C1=O)N1CCC(N2Cc3cccc(F)c3NC2=O)CC1,0.01 to 10,0.01 to 10,
CC(C)(C)CN1Cc2c(cc(Cl)c3[nH]ncc23)C[C@@H](CC(=O)N2CCC(c3cc4ccccc4[nH]c3=O)CC2)C1=O,0.01 to 10,0.01 to 10,
CC(C)(C)CN1Cc2c(ccc3[nH]ncc23)CC(NC(=O)N2CCC(N3Cc4ccccc4NC3=O)CC2)C1=O (stereo not drawn),0.01 to 10,0.01 to 10,
O=C(C[C@@H]1Cc2cc(Cl)c3[nH]ncc3c2CN(Cc2ccncc2)C1=O)N1CCC(N2Cc3ccccc3NC2=O)CC1,0.01 to 10,0.01 to 10,
O=C(C[C@@H]1Cc2cc(Cl)c3[nH]ncc3c2CN(Cc2ccncc2)C1=O)N1CCC(n2cc(-c3ccccc3)[nH]c2=O)CC1,0.01 to 10,0.01 to 10,
CC(C)(C)CN1Cc2c(cc(Cl)c3[nH]ncc23)C[C@@H](CC(=O)N2CCC3(CC2)NC(=O)Nc2ccccc23)C1=O,0.01 to 10,0.01 to 10,
CC(C)(C)CN1Cc2c(cc(Cl)c3[nH]ncc23)C[C@@H](CC(=O)N2CCC(n3cc(-c4ccccn4)[nH]c3=O)CC2)C1=O,0.01 to 10,0.01 to 10,
CC(C)(C)CN1Cc2c(ccc3[nH]ncc23)C[C@@H](CC(=O)N2CCC(N3Cc4ccccc4NC3=O)CC2)C1=O [drawing 84],,0.01 to 10,
CC(C)(C)CN1Cc2c(cc(Cl)c3[nH]ncc23)C[C@@H](CC(=O)N2CCC(N3Cc4ccccc4CC3=O)CC2)C1=O,0.01 to 10,0.01 to 10,
CC(C)(C)CN1Cc2c(cc(Cl)c3[nH]ncc23)C[C@@H](NC(=O)N2CCC(N3Cc4ccccc4NC3=O)CC2)C1=O,0.01 to 10,0.01 to 10,

Compound,IC50 ([1]; Table 2) [nM],IC50 [2] [nM],IC50 ([1]; Table 1) [nM]
N#Cc1cc(Cl)ccc1C1=CCN(C(=O)C[C@@H]2Cc3cc(Cl)c4[nH]ncc4c3CN(CC(F)(F)F)C2=O)CC1,,,10 to 100
CC(C)(C)CN1Cc2c(cc(Cl)c3[nH]ncc23)C[C@@H](CC(=O)N2CCC(N3Cc4cccc(F)c4NC3=O)CC2)C1=O,0.01 to 10,0.01 to 10,
COCCn1ncc2c3c(cc(Cl)c21)C[C@@H](CC(=O)N1CCC(N2CCc4ccccc4NC2=O)CC1)C(=O)N(CC(F)(F)F)C3,,,0.01 to 10
O=C(C[C@@H]1Cc2cc(Cl)c3[nH]ncc3c2CN(CC(F)(F)F)C1=O)N1CCC(n2ccn(-c3ccccc3F)c2=O)CC1,,,> 1000
O=C(C[C@@H]1Cc2cc(Cl)c3[nH]ncc3c2CN(Cc2ccncc2)C1=O)N1CCC(c2cc3cccc(F)c3[nH]c2=O)CC1,0.01 to 10,,
CC(C)(C)CN1Cc2c(ccc3[nH]ncc23)C[C@@H](CC(=O)N2CCC(N3Cc4ccccc4NC3=O)CC2)C1=O [drawing 135],100 to 1000,,
O=C(C[C@@H]1Cc2cc(Br)c3[nH]nc(Cl)c3c2CN(CC(F)(F)F)C1=O)N1CCC(N2CCc3ccccc3NC2=O)CC1,,,0.01 to 10
CC(=O)N1CCC(N2Cc3c(ccc4[nH]ncc34)C[C@@H](NC(=O)N3CCC(N4Cc5ccccc5NC4=O)CC3)C2=O)CC1,10 to 100,,
CC(C)(C)CN1Cc2c(ccc3[nH]ncc23)C[C@@H](NC(=O)N2CCC3(CC2)N=C(c2ccccc2)NC3=O)C1=O,100 to 1000,,
O=C(C[C@@H]1Cc2cc(Cl)c3[nH]ncc3c2CN(CC(F)(F)F)C1=O)N1CCC(N2CCc3cccc(F)c3NC2=O)CC1,,,10 to 100
CC(C)(C)CN1Cc2c(cc(Cl)c3[nH]ncc23)C[C@@H](CC(=O)N2CCC(c3cc4scc(Cl)c4[nH]c3=O)CC2)C1=O (mixture of isomers),,,0.01 to 10
O=C(C[C@@H]1Cc2cc(Cl)c3[nH]ncc3c2CN(CC(F)(F)F)C1=O)N1CCC(c2cc3cccnc3[nH]c2=O)CC1,0.01 to 10,,
CC(C)(C)CN1Cc2c(cc(Cl)c3[nH]ccc23)C[C@@H](CC(=O)N2CCC(c3cc4sccc4[nH]c3=O)CC2)C1=O,,,0.01 to 10
O=C(C[C@@H]1Cc2cc(Cl)c3[nH]nc(Cl)c3c2CN(CCN2CCCCC2)C1=O)N1CCC(N2CCc3ccccc3NC2=O)CC1,,,0.01 to 10
O=C(C[C@@H]1Cc2cc(Cl)c3[nH]ncc3c2CN(Cc2ccncc2)C1=O)N1CCC(c2cc3ccccc3[nH]c2=O)CC1,0.01 to 10,0.01 to 10,
